Assay results taken from patent US6060471A, “Reduction of hair growth” (priority 1998, dated 2000).
Like-named read-outs stand apart in the source and are kept apart here.

How the values were obtained:
[1] = tested on: flank organs of Golden Syrian hamsters (hair growth); test: Golden Syrian hamster assay (flank organ hair mass); assay type: in vivo; settings: for inhibition in vivo at 10 %: read-out: % Inhibition (hair mass)
Text: Male intact Golden Syrian hamsters are considered acceptable models for human beard hair growth in that they display oval shaped flank organs, one on each side, each about 8 mm. in major diameter, which grow thick black and coarse hair similar to human beard hair. These organs produce hair in response to androgens in the hamster. To evaluate the effectiveness of a composition including an inhibitor of the hypusine biosynthetic pathway, the flank organs of each of a group of hamsters are depilated by applying a thioglycolate based chemical depilatory (Surgex) and/or shaved. To one organ of each animal 10 μl. of vehicle alone once a day is applied, while to the other organ of each animal an equal amount of vehicle containing an inhibitor of the hypusine biosynthetic pathway is applied. After thirteen applications (one application per day for five days a week), the flank organs are shaved and the amount of recovered hair (hair mass) from each is weighed. Percent-reduction of hair growth is calculated by subtracting the hair mass (mg) value of the test compound treated side from the hair mass value of the vehicle treated side; the delta value obtained is then divided by the hair mass value of the vehicle treated side, and the resultant number is multiplied by 100.
The above-described assay will be referred to herein as the "Golden Syrian hamster" assay.
This vehicle also was used in the testing described below.

[2] = tested on: 18 kD human hair follicle protein (eIF-5A); test: Incorporation of 3H-spermidine into 18 kD human hair follicle proteins; assay type: cell-based; settings: inhibitor 0.2 mM, follicles cultured 48 hours, 3H-spermidine 6 hours; for % Reduction of 3H-spermidine incorporation: 2880 min, 200 µM
Procedure: Human hair follicles derived from face lift procedures were isolated and placed in Williams E medium containing antibiotics, glutamine, insulin and hydrocortisone. Follicles were cultured for 48 hours at 37° C. in the presence of 1,6-diaminohexane (0.2 mM), 1,8-diaminooctane (0.2 mM), ciclopiroxolamine (0.2 mM) or hydralazine (0.2 mM). Control follicles were maintained in Williams E without any inhibitors present. At the end of the 48 hour period, ^3 H-spermidine […] was added to the culture for 6 hours. The hair follicles were washed in phosphate buffered saline to remove nonincorporated ^3 H-spermidine, and the follicles were homogenized in a buffer, pH 7.4, containing Tris (50 mM) and sucrose (0.5 mM). Hair follicle protein was applied to a 10% polyacrylamide gel. After the proteins were separated on the gel using a constant voltage (125 V), they were stained with coomassie blue. […] The protein bands were cutout of the gel and solubilized with BTS-450 (Beckman). The liquid scintillation fluid Econoscint (12 mL) was added to each sample, which was analyzed for ^3 H-spermidine incorporation by scintillation spectrometry.

[3] = Table I, dose 10%, topical, 13 applications, pH per compound 6.0-8.5
[4] = Mesocricetus auratus, Table I, dose 10%, topical, 13 applications, pH per compound 6.0-8.5

SMILES	Hair Mass, Treated [1, 3]	Incorporation of 3H-spermidine [2] [pmol/mg protein]	% Reduction of 3H-spermidine incorporation [2] [%]	inhibition in vivo at 10 % [1, 4] [%]	other results
NCCCCCCN [1,6-Diaminohexane, 1,6-diaminohexane]	1.50 ± .20 mq	< 1.0	100	–	inhibition in vivo at 10 % ([1]; Mesocricetus auratus, topical): 51 ± 5%; % Reduction of 3H-spermidine incorporation ([2]; listed as 1,6-diaminohexane): 47-100%
NCCCCCCCN [1,7-Diaminoheptane, 1,7-diaminoheptane]	0.80 ± .11 mq	–	–	67 ± 4	–
NCCCCCCCCN [1,8-Diaminooctane, 1,8-diaminooctane]	0.70 ± .12 mq	< 1.0	100	74 ± 6	inhibition in vivo at 2 % ([1]; Mesocricetus auratus, topical, Table II, dose 2%, pH 9.0): 24 ± 8%; inhibition in vivo at 5 % ([1]; Mesocricetus auratus, topical, Table II, dose 5%, pH 9.0): 48 ± 10%; inhibition in vivo at 10 % ([1]; Mesocricetus auratus, topical, Table II, dose 10%, pH 8.0): 74 ± 6%; Hair Mass, Treated ([1]; Table II, dose 2%, pH 9.0): 1.88 ± .25 mg; Hair Mass, Treated ([1]; Table II, dose 5%, pH 9.0): 1.86 ± .37 mg; Hair Mass, Treated ([1]; Table II, dose 10%, pH 8.0): 0.70 ± .12 mg; % Reduction of 3H-spermidine incorporation ([2]; listed as 1,8-diaminooctane): 47-100%
NCCCCCCCCCN [1,9-Diaminononane, 1,9-diaminononane]	1.27 ± .56 mq	–	–	50 ± 13	–
NCCCCCN [Cadaverine, cadaverine]	1.91 ± .15 mq	–	–	43 ± 4	–
Cc1cc(C2CCCCC2)n(O)c(=O)c1 [Ciclopiroxolamine, ciclopiroxolamine]	–	< 1.0	100	–	inhibition in vivo at 10 % ([1]; Mesocricetus auratus, topical, Table III, dose 10%, pH 9.0): 44%; % Inhibition (hair mass) ([1]; Table III, dose 10%, pH 9.0): 44 ± 17%; Hair Mass, Treated ([1]; Table III, dose 10%, pH 9.0): 0.92 ± .21 mg; % Reduction of 3H-spermidine incorporation ([2]; listed as ciclopiroxolamine): 47-100%
NNc1nncc2ccccc12 [Hydralazine, hydralazine]	–	10.3	47	–	inhibition in vivo at 5 % ([1]; Mesocricetus auratus, topical, Table III, dose 5%, pH 5.0): 33%; % Inhibition (hair mass) ([1]; Table III, dose 5%, pH 5.0): 33 ± 7%; Hair Mass, Treated ([1]; Table III, dose 5%, pH 5.0): 1.38 ± .14 mg; inhibition at 200 µM ([2]; Homo sapiens, 48 h, read-out: % Reduction of 3H-spermidine incorporation): 47 to 100%
NCCCCN(CCCN)Cc1ccccc1 [N^4 -Benzylspermidine, N^4 -benzyl-spermidine]	1.05 ± .12 mq	–	–	62 ± 4	–
